Experimental data taken from patent publication US20250313563A1, “GLYCOGEN SYNTHASE KINASE 3 INHIBITORS AND USES THEREOF” (The Broad Institute, Inc., priority 2022, published 2025).
Like-named read-outs stand apart in the source and are kept apart here.

What was measured:
[1] = biological target: GSK3α (GST-full length GSK3α) (Homo sapiens (Human), UniProt P49840); assay: GSK3α TR-FRET kinase assay; assay type: biochemical
How it was run: (§1)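 IC50 came from the normalized 665/615 nm TR-FRET ratio plotted against log compound concentration. The Tb-labelled pSer641 antibody and streptavidin-d2 detected phosphorylation of biotinylated S645-primed glycogen synthase peptide (200 nM) by 1 nM full-length GST-kinase. ATP was 4 μM for α, 2 μM for β, or 1 mM.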

[2] = biological target: GSK3b (GST-full length GSK3b) (Homo sapiens (Human), UniProt P49841); assay: GSK3b TR-FRET kinase assay; assay type: biochemical
Chain of GSK3b (GST-full length GSK3b) (P49841 whole entry): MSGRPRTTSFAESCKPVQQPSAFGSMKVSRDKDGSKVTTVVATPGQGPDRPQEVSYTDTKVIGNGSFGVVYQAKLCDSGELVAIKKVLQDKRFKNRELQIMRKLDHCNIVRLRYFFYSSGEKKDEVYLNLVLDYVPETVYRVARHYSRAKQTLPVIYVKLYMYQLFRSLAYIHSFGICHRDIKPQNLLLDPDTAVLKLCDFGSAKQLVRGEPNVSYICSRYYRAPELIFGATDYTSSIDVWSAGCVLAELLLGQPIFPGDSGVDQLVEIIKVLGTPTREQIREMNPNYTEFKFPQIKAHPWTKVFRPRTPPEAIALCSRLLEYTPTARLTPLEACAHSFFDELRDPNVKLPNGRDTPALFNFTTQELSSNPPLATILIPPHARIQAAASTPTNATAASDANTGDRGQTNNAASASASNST
How it was run: as §1

[3] = 1 nM GSK3α, 4 μM ATP, 30 minute preincubation, Table 16, read-out: GSK3-A TR-FRET BIOCHEMICAL (TR-FRET), IC50
[4] = 1 nM GSK3b, 2 μM ATP, 30 minute preincubation, Table 16, read-out: GSK3-B TR-FRET BIOCHEMICAL (TR-FRET), IC50
[5] = 1 nM GSK3α, 4 μM ATP, 30 minute preincubation, Table 16, read-out: GSK3-A TR-FRET BIOCHEMICAL (TR-FRET)
[6] = 1 nM GSK3b, 2 μM ATP, 30 minute preincubation, Table 16, read-out: GSK3-B TR-FRET BIOCHEMICAL (TR-FRET)

Chain of GSK3α (GST-full length GSK3α) (P49840 whole entry): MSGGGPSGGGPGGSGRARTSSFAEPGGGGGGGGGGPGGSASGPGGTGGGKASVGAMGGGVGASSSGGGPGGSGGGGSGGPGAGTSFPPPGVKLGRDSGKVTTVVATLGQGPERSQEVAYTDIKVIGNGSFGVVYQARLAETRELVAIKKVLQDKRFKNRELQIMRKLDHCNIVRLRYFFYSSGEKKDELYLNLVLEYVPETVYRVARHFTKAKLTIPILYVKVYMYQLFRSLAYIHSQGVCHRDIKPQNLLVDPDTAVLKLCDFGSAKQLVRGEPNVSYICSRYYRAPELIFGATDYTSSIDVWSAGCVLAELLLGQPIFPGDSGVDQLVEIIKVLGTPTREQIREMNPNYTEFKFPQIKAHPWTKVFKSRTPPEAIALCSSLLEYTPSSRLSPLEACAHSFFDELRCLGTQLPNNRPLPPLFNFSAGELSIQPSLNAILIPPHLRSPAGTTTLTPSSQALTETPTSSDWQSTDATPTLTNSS

| Compound | IC50 [1, 3] [nM] | IC50 [2, 4] [nM] | IC50 [1, 5] [nM] | IC50 [2, 6] [nM] | other results |
| --- | --- | --- | --- | --- | --- |
| CC[C@]1(c2cccc(-c3cnn(C)c3)c2)C2=C(CC(C)(C)NC2=O)Nc2n[nH]c(C(F)F)c21 [Compound 949911] | 100 to 1000 | > 5000 | – | – | – |
| CC[C@@]1(c2cccc(-c3cnn(C)c3)c2)C2=C(CC(C)(C)NC2=O)Nc2n[nH]c(C(F)F)c21 [Compound 949919] | ≤ 100 | ≤ 100 | – | – | IC50 ([1]; read-out: GSK3-A (TR-FRET 1 mM ATP), GMean, IC50, 1 mM ATP, geometric mean): ≤ 100 nM; IC50 ([2]; read-out: GSK3-B (TR-FRET 1 mM ATP), GMean, IC50, 1 mM ATP, geometric mean): 100 to 1000 nM |
| CC[C@]1(c2cccc(-c3cnn(C4CC4(F)F)c3)c2)C2=C(CC(C)(C)NC2=O)Nc2n[nH]cc21 (stereo partly shown) [Compound 950060] | ≤ 100 | 100 to 1000 | – | – | – |
| CC[C@]1(c2cccc(-c3cnn(C(C)C)c3F)c2)C2=C(CC(C)(C)NC2=O)Nc2n[nH]cc21 [Compound 950061] | 100 to 1000 | > 5000 | – | – | – |
| CCC1(c2cccc(Cc3ncccn3)c2)C2=C(CC(C)(C)NC2=O)Nc2n[nH]cc21 (stereo not shown) [Compound 950151] | ≤ 100 | 1000 to 5000 | – | – | – |
| CC[C@]1(c2ccccc2)C2=C(C[C@@]3(CCNC3=O)CC2=O)Nc2n[nH]cc21 [Compound 950160] | – | – | 1000 to 5000 | > 5000 | – |
| CC[C@@]1(c2ccccc2)C2=C(C[C@@]3(CCNC3=O)CC2=O)Nc2n[nH]cc21 [Compound 950161] | – | – | 1000 to 5000 | > 5000 | – |
| CCC1(c2cccc(-c3ccnc(C)c3)c2)C2=C(CC(C)(C)NC2=O)Nc2n[nH]c(C(F)F)c21 (stereo not shown) [Compound 950162] | 100 to 1000 | 100 to 1000 | – | – | – |
| CC[C@@]1(c2ccccc2)C2=C(C[C@]3(CCNC3=O)CC2=O)Nc2n[nH]cc21 [Compound 950164] | – | – | > 5000 | > 5000 | – |
| CC[C@]1(c2ccccc2)C2=C(C[C@]3(CCNC3=O)CC2=O)Nc2n[nH]cc21 [Compound 950165] | – | – | > 5000 | > 5000 | – |
| CC[C@]1(c2cccc(-c3cnn(C(F)F)c3)c2)C2=C(CC(C)(C)NC2=O)Nc2n[nH]cc21 [Compound 950254] | ≤ 100 | 1000 to 5000 | – | – | – |
| CC[C@@]1(c2cccc(C(F)(F)F)c2)C2=C(CC(C)(C)C2=O)Nc2n[nH]cc21 [Compound 950272] | ≤ 100 | 100 to 1000 | – | – | – |
| CCC1(c2cccc(C(F)(F)F)c2)C2=C(CC(C)(C)C2=O)Nc2n[nH]cc21 (stereo not shown) [Compound 950273] | > 5000 | > 5000 | – | – | – |
| CC[C@@]1(c2cccc(-c3ccnc(C)c3)c2)C2=C(CC(C)(C)C2=O)Nc2n[nH]cc21 [Compound 950282] | ≤ 100 | 100 to 1000 | – | – | – |
| CCC1(c2cccc(Oc3ncccn3)c2)C2=C(CC(C)(C)NC2=O)Nc2n[nH]c(Cl)c21 (stereo not shown) [Compound 950318] | ≤ 100 | ≤ 100 | – | – | – |
| CCC1(c2cccc(-c3ccncc3F)c2)C2=C(CC(C)(C)NC2=O)Nc2n[nH]c(C(F)F)c21 (stereo not shown) [Compound 950320] | ≤ 100 | ≤ 100 | – | – | – |
| CCC1(c2cccc(Oc3ncccn3)c2)C2=C(CC(C)(C)NC2=O)Nc2n[nH]c(C(F)(F)F)c21 (stereo not shown) [Compound 950323] | ≤ 100 | ≤ 100 | – | – | – |
| CCC1(c2cccc(C(F)(F)F)c2)C2=C(CC3(CCNC3=O)CC2=O)Nc2n[nH]cc21 (stereo not shown) [Compound 950324] | – | – | ≤ 100 | 100 to 1000 | – |
| CC[C@]1(c2cccc(C(F)(F)F)c2)C2=C(C[C@@]3(CCN(C)C3=O)CC2=O)Nc2n[nH]cc21 [Compound 950325] | – | – | > 5000 | > 5000 | – |
| CCC1(c2cccc(C(F)(F)F)c2)C2=C(CC3(CCN(C)C3=O)CC2=O)Nc2n[nH]cc21 (stereo not shown) [Compound 950329] | – | – | ≤ 100 | ≤ 100 | – |
| CCC1(c2cccc(C(F)(F)F)c2)C2=C(CC3(CCN(C)C3=O)CC2=O)Nc2n[nH]cc21 (stereo not shown) [Compound 950330] | – | – | 100 to 1000 | > 5000 | – |
| CCC1(c2cccc(C(F)(F)F)c2)C2=C(CC3(CCNC3=O)CC2=O)Nc2n[nH]cc21 (stereo not shown) [Compound 950331] | – | – | 100 to 1000 | > 5000 | – |
| CC[C@@]1(c2cccc(C(F)(F)F)c2)C2=C(C[C@]3(CCNC3=O)CC2=O)Nc2n[nH]cc21 [Compound 950332] | – | – | > 5000 | > 5000 | – |

| Compound | IC50 [1, 3] [nM] | IC50 [2, 4] [nM] | IC50 [1, 5] [nM] | IC50 [2, 6] [nM] | other results |
| --- | --- | --- | --- | --- | --- |
| CC[C@@]1(c2cccc(C(F)(F)F)c2)C2=C(C[C@@]3(CCNC3=O)CC2=O)Nc2n[nH]cc21 [Compound 950333] | – | – | ≤ 100 | 100 to 1000 | – |
| Cc1nccc([C@H]2CC[C@]3(CC2)C2=C(CC(C)(C)CC2=O)Nc2n[nH]cc23)c1C [Compound 950477] | – | – | 100 to 1000 | 100 to 1000 | – |
| Cc1nccc([C@H]2CC[C@@]3(CC2)C2=C(CC(C)(C)CC2=O)Nc2n[nH]cc23)c1C [Compound 950478] | – | – | ≤ 100 | ≤ 100 | – |
| CCC1(c2cccc(C(F)(F)F)c2)C2=C(CCN(c3cn[nH]c3)C2=O)Nc2n[nH]cc21 (stereo not shown) [Compound 950479] | ≤ 100 | 100 to 1000 | – | – | – |
| CCC1(c2cccc(N(C)c3ncccn3)c2)C2=C(CC(C)(C)NC2=O)Nc2n[nH]c(C(F)F)c21 (stereo not shown) [Compound 950484] | ≤ 100 | ≤ 100 | – | – | – |
| CCC1(c2cccc(C(F)(F)F)c2)C2=C(CCN(c3nn(C)cc3C)C2=O)Nc2n[nH]cc21 (stereo not shown) [Compound 950486] | 100 to 1000 | 1000 to 5000 | – | – | – |
| CC[C@]1(c2cccc(C(C)C)c2)C2=C(CC(C)(C)NC2=O)Nc2n[nH]c(C(F)(F)F)c21 [Compound 950493] | 100 to 1000 | 100 to 1000 | – | – | – |
| CC[C@]1(c2cccc(-c3cnn(C)c3F)c2)C2=C(CC(C)(C)NC2=O)Nc2n[nH]cc21 [Compound 950562] | ≤ 100 | 100 to 1000 | – | – | – |
| CC[C@]1(c2cccc(-c3cnn4c3CC(C)(C)CC4)c2)C2=C(CC(C)(C)NC2=O)Nc2n[nH]cc21 [Compound 950564] | ≤ 100 | 100 to 1000 | – | – | – |
| CCC1(c2cccc(C(F)(F)F)c2)C2=C(CCN(c3cc(C)n(C)n3)C2=O)Nc2n[nH]cc21 (stereo not shown) [Compound 950608] | 100 to 1000 | 1000 to 5000 | – | – | – |
| CCC1(c2cccc(C(F)(F)F)c2)C2=C(CCN(c3cnn(C)c3C)C2=O)Nc2n[nH]cc21 (stereo not shown) [Compound 950612] | ≤ 100 | 1000 to 5000 | – | – | – |
| CCC1(c2cccc(C(F)(F)F)c2)C2=C(CCN(c3cccs3)C2=O)Nc2n[nH]cc21 (stereo not shown) [Compound 950614] | ≤ 100 | 100 to 1000 | – | – | – |
| CCC1(c2cccc(Oc3ncccn3)c2)C2=C(CC(C)(C)NC2=O)Nc2n[nH]c(F)c21 (stereo not shown) [Compound 950615] | ≤ 100 | 100 to 1000 | – | – | – |
| CCC1(c2cccc(C(F)(F)F)c2)C2=C(CCN(c3ccsc3)C2=O)Nc2n[nH]cc21 (stereo not shown) [Compound 950776] | ≤ 100 | 100 to 1000 | – | – | – |
| CCC1(c2cccc(-c3cn(C)nc3C)c2)C2=C(CC3(CCS(=O)(=O)CC3)NC2=O)Nc2n[nH]cc21 (stereo not shown) [Compound 950813] | ≤ 100 | 100 to 1000 | – | – | – |
| CC1(C)CC(=O)C2=C(Nc3n[nH]cc3C23CCN(S(=O)(=O)C2CC2)CC3)C1F (stereo not shown) [Compound 950814] | – | – | ≤ 100 | ≤ 100 | – |
| CCC1(c2cccc(-c3c(C)nnn3C)c2)C2=C(CC(C)(C)C2=O)Nc2n[nH]cc21 (stereo not shown) [Compound 950815] | 100 to 1000 | 1000 to 5000 | – | – | – |
| CC[C@]1(c2cccc(C3CC3)c2)C2=C(CC(C)(C)NC2=O)Nc2n[nH]cc21 [Compound 950817] | > 5000 | > 5000 | – | – | – |
| CCC1(c2cccc(-c3cc(C)nn3C)c2)C2=C(CC(C)(C)C2=O)Nc2n[nH]cc21 (stereo not shown) [Compound 950818] | 100 to 1000 | 1000 to 5000 | – | – | – |
| CC[C@@]1(c2cccc(-c3cnn(C)c3)c2)C2=C(CC(C)(C)C2=O)Nc2n[nH]cc21 [Compound 950819] | 100 to 1000 | 1000 to 5000 | – | – | – |
| CC[C@]1(c2cccc(-c3ccnn3-c3ccc(F)cc3)c2)C2=C(CC(C)(C)NC2=O)Nc2n[nH]cc21 [Compound 950822] | 100 to 1000 | 100 to 1000 | – | – | – |
| CC[C@]1(c2cccc(-c3ccnn3C3CC3(F)F)c2)C2=C(CC(C)(C)NC2=O)Nc2n[nH]cc21 (stereo partly shown) [Compound 950824] | ≤ 100 | ≤ 100 | – | – | IC50 ([1]; GSK3-A (TR-FRET 1 mM ATP), GMean, IC50, 1 mM ATP, geometric mean): 100 to 1000 nM; IC50 ([2]; GSK3-B (TR-FRET 1 mM ATP), GMean, IC50, 1 mM ATP, geometric mean): 100 to 1000 nM |
